In patent US11384063B2, “Modulators of estrogen receptor proteolysis and associated methods of use” (Arvinas Operations, Inc., priority 2017, dated 2022):
Where a name gives a salt, the structure may show the parent alone. Read-outs that look alike come from different tables or passages of the source.

Tests used:
ERα [1] = molecular target: T1, ERα (Homo sapiens, UniProt P03372); assay: Estrogen receptor-alpha (ERα) degradation assay in MCF7 cells using In-Cell Western assay; format: cell-based; design: assessed for their activity in degrading ERα in MCF-7 cells via western blot; endogenous in cells; host or cells: MCF7 cells; conditions: ER-alpha degradation in MCF7 cells, 5 days of incubation
T1 sequence (P03372 1-595): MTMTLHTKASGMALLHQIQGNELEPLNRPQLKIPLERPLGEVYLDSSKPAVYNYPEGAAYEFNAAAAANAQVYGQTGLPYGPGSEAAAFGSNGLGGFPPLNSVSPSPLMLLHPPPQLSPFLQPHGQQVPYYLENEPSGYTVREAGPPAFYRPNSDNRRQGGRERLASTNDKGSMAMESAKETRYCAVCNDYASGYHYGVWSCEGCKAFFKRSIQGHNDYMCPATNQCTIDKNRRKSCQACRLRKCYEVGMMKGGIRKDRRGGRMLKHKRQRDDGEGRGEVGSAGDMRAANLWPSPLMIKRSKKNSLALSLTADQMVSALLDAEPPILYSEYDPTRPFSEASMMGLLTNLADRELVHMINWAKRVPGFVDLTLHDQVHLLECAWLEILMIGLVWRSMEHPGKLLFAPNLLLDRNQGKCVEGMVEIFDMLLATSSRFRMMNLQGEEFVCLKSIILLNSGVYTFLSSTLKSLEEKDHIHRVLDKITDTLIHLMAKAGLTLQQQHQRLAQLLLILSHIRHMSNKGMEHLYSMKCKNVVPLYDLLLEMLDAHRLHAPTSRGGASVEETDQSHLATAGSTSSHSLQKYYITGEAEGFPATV
Experimental: Estrogen Receptor-Alpha (ERα) Degradation Assay Using in-Cell Western™ Assay for Table 5.
Degradation of ERα by claimed compounds were determined in MCF7 cells using an In-Cell Western™ assay. Briefly, MCF7 cells were plated in 96-well plates (2000 cells per well in 100 μl media) and incubated at 37° C. under an atmosphere of 5% CO2 in a humidified incubator overnight. One-hundred (100) μI of media containing test compound (at 2x concentration) was added to the appropriate wells to provide 11 serially decreasing concentrations (top final concentration, 1 μM then 3-fold less for the next 10 concentrations); a vehicle control (DMSO) was also added for each compound. For each experiment, all compounds were assayed on duplicate plates. Cells were then incubated for 3 or 5 days in the above-mentioned environment. The assay was terminated by removal of media, a single wash with ice-cold PBS and the addition of 50 μl paraformaldehyde (PFA: 4% in PBS). After 15 minutes in PFA at room temperature, the cells were permeabilized in Tris-phosphate-buffered saline with Tween (0.1%) (TBST) supplemented with Triton X-100 (0.5%) for 15 minutes. Cells were then blocked in BSA (TBST with BSA, 3%) for one hour. Primary antibodies for the detection of ERa (rabbit monoclonal, 1:1000, Cell Signaling Technology Catalog #8644) and tubulin (mouse monoclonal, 1:5000, Sigma Catalog #T6074) in TBST with BSA (3%) were added. The cells were incubated overnight at 4° C. The cells were then washed thrice with TBST at room temperature and then incubated with anti-rabbit and anti-mouse fluorescently-labelled secondary antibodies (IRDye®; LI-COR; Lincoln, Nebr.) in LI-COR blocking buffer (Catalog #927-50000) for one hour at room temperature. Following 3 washes with TBST, the buffer was removed and the plates were read on an Odyssey® infrared imaging system (LI-COR®, Lincoln, Nebr.) at 700 nm and 800 nm. Using commercial software (ImageStudio™; LI-COR, Lincoln, Nebr.), the staining intensity for ERa and tubulin in each well was quantified and exported for analysis. For each data point, ERa intensity was normalized to tubulin intensity and for each compound all normalized intensity values were normalized to the vehicle control. DC50 and Dmax values were determined following a 4-parameter IC50 curve fit using ACAS dose response module (McNeil & Co Inc.).

ERα [2] = molecular target: T1, ERα; assay: ERE luciferase reporter gene assay in T47D-KBluc cells (target engagement); format: cell-based; design: T47D human breast cancer cells stably transfected with estrogen responsive element/promoter/luciferase reporter gene; host or cells: T47D-KBluc cells; conditions: 10% FBS, 24 hours, read-out: ER-α Luciferase IC50
How it was run: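 T47D-KBluc breast cancer cells, which carry a stable ERE-luciferase reporter, were grown in RPMI with 10% FBS (about 10 pM estrogen) and exposed to PROTACs for 24 h. The 12-point, 3-fold series ran from 300 nM to 2 pM. Luciferase was read after lysis, and IC50 was fitted from duplicates.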

[3] = Table 3 cereblon centric PROTACs
[4] = Table 1 cereblon centric PROTACs

SMILES | DC50 (ERα [1]) | Dmax (ERα [1]) | IC50 (ERα [2]; [3]) | IC50 (ERα [2]; [4])
O=C1CCC(N2C(=O)c3ccc(N4CCN(CCOCc5ccc(Oc6c(-c7ccc(Br)cc7)sc7cc(O)ccc67)cc5)CC4)cc3C2=O)C(=O)N1 (centres unmarked) [Compound 225, 5-[4-[2-[[4-[2-(4-bromophenyl)-6-hydroxy-benzothiophen-3-yl]oxyphenyl]methoxy]ethyl]piperazin-1-yl]-2-(2,6-dioxo-3-piperidyl)isoindoline-1,3-dione] |  | < 50% | 4.8 nM | 
O=C1CCC(N2C(=O)c3ccc(N4CC(CN5CCCN(CCOc6ccc(Oc7c(-c8ccc(Br)cc8)sc8cc(O)ccc78)cc6)CC5)C4)cc3C2=O)C(=O)N1 (centres unmarked) [Compound 191, 5-(3-((4-(2-(4-((2-(4-bromophenyl)-6-hydroxybenzo[b]thiophen-3-yl)oxy)phenoxy)ethyl)-1,4-diazepan-1-yl)methyl)azetidin-1-yl)-2-(2,6-dioxopiperidin-3-yl)isoindoline-1,3-dione] | 1 to 10 nM | 50 to 75% | 1.8 nM | 
O=C1CC[C@H](N2Cc3cc(CCN4CCCN(CCCCOc5ccc(Oc6c(-c7ccc(Br)cc7)sc7cc(O)ccc67)cc5)CC4)ccc3C2=O)C(=O)N1 [Compound 182, (3S)-3-[5-[2-[4-[4-[4-[2-(4-bromophenyl)-6-hydroxy-benzothiophen-3-yl]oxyphenoxy]butyl]-1,4-diazepan-1-yl]ethyl]-1-oxo-isoindolin-2-yl]piperidine-2,6-dione] | 1 to 10 nM | > 75% | 1.9 nM | 
O=C1CCC(N2C(=O)c3ccc(N4CCN(CC5CN(CCOc6ccc(Oc7c(-c8ccc(Br)cc8)sc8cc(O)ccc78)cc6)C5)CC4)cc3C2=O)C(=O)N1 (centres unmarked) [Compound 185, 5-[4-[[1-[2-[4-[2-(4-bromophenyl)-6-hydroxy-benzothiophen-3-yl]oxyphenoxy]ethyl]azetidin-3-yl]methyl]piperazin-1-yl]-2-(2,6-dioxo-3-piperidyl)isoindoline-1,3-dione] | 1 to 10 nM | 50 to 75% | 4.5 nM | 
O=C1CCC(N2Cc3cc(N4CCN(CCC5CCN(c6ccc(Oc7c(-c8ccc(F)cc8)sc8cc(O)ccc78)cc6)CC5)CC4)ccc3C2=O)C(=O)N1 (centres unmarked) [Compound 229, 3-[5-[4-[2-[1-[4-[2-(4-fluorophenyl)-6-hydroxy-benzothiophen-3-yl]oxyphenyl]-4-piperidyl]ethyl]piperazin-1-yl]-1-oxo-isoindolin-2-yl]piperidine-2,6-dione] | 1 to 10 nM | > 75% | 1 nM | 
O=C1CCC(N2C(=O)c3ccc(N4CCN(C5CCN(CCOc6ccc(Oc7c(-c8ccc(Br)cc8)sc8cc(O)ccc78)cc6)CC5)CC4)cc3C2=O)C(=O)N1 (centres unmarked) [Compound 183, 5-[4-[1-[2-[4-[2-(4-bromophenyl)-6-hydroxy-benzothiophen-3-yl]oxyphenoxy]ethyl]-4-piperidyl]piperazin-1-yl]-2-(2,6-dioxo-3-piperidyl)isoindoline-1,3-dione] | 10 to 100 nM | 50 to 75% | 2.5 nM | 
COc1ccc2c(Oc3ccc(OCCN4CCN(CCCNc5ccc6c(c5)CN(C5CCC(=O)NC5=O)C6=O)CC4)cc3)c(-c3ccc(O)cc3)sc2c1 (centres unmarked) [Compound 181, 3-[5-[3-[4-[2-[4-[2-(4-hydroxyphenyl)-6-methoxy-benzothiophen-3-yl]oxyphenoxy]ethyl]piperazin-1-yl]propylamino]-1-oxo-isoindolin-2-yl]piperidine-2,6-dione] | 1 to 10 nM | 50 to 75% | 2.2 nM | 
O=C1CCC(N2C(=O)c3ccc(N4CCN(CC5CCN(c6ccc(Oc7c(-c8ccc(F)cc8)sc8cc(O)ccc78)cc6)CC5)CC4)cc3C2=O)C(=O)N1 (centres unmarked) [Compound 227, 2-(2,6-dioxo-3-piperidyl)-5-[4-[[1-[4-[2-(4-fluorophenyl)-6-hydroxy-benzothiophen-3-yl]oxyphenyl]-4-piperidyl]methyl]piperazin-1-yl]isoindoline-1,3-dione] | 1 to 10 nM | > 75% | 7 nM | 
COc1ccc(-c2sc3cc(O)ccc3c2Oc2ccc(N3CCC(CN4CCN(c5ccc6c(c5)C(=O)N(C5CCC(=O)NC5=O)C6=O)CC4)CC3)cc2)cc1 (centres unmarked) [Compound 237, 2-(2,6-dioxo-3-piperidyl)-5-[4-[[1-[4-[6-hydroxy-2-(4-methoxyphenyl)benzothiophen-3-yl]oxyphenyl]-4-piperidyl]methyl]piperazin-1-yl]isoindoline-1,3-dione] | 10 to 100 nM | > 75% | 4.9 nM | 

Now from value to molecule:

DC50 (ERα [1]) | Dmax (ERα [1]) | IC50 (ERα [2]; [3]) | IC50 (ERα [2]; [4]) | SMILES
1 to 10 nM | 50 to 75% | 11.6 nM |  | O=C1CCC(N2C(=O)c3ccc(C4CCN(C5CCN(CCOc6ccc(Oc7c(-c8ccc(Br)cc8)sc8cc(O)ccc78)cc6)CC5)CC4)cc3C2=O)C(=O)N1 (centres unmarked) [Compound 190, 5-(1′-(2-(4-((2-(4-bromophenyl)-6-hydroxybenzo[b]thiophen-3-yl)oxy)phenoxy)ethyl)-[1,4′-bipiperidin]-4-yl)-2-(2,6-dioxopiperidin-3-yl)isoindoline-1,3-dione Hydrochloride]
1 to 10 nM | 50 to 75% |  | 3 nM | O=C1CCC(N2Cc3cc(CNC(=O)C4CCN(CCOc5ccc(Oc6c(-c7ccc(Br)cc7)sc7cc(O)ccc67)cc5)CC4)ccc3C2=O)C(=O)N1 (centres unmarked) [Compound 57, 1-(2-(4-(2-(4-bromophenyl)-6-hydroxybenzo[b]thiophen-3-yloxy)phenoxy)ethyl)-N-((2-(2,6-dioxopiperidin-3-yl)-1-oxoisoindolin-5-yl)methyl)piperidine-4-carboxamide]
1 to 10 nM | > 75% |  | 11 nM | O=C1CCC(N2Cc3cc(NCCCN4CCCN(CCOc5ccc(Oc6c(-c7ccc(Br)cc7)sc7cc(O)ccc67)cc5)CC4)ccc3C2=O)C(=O)N1 (centres unmarked) [Compound 74, 3-(5-(3-(4-(2-(4-(2-(4-bromophenyl)-6-hydroxybenzo[b]thiophen-3-yloxy)phenoxy)ethyl)-1,4-diazepan-1-yl)propylamino)-1-oxoisoindolin-2-yl)piperidine-2,6-dione]
1 to 10 nM | 50 to 75% | 7.5 nM |  | O=C1CCC(N2Cc3cc(N4CCN(CCCOc5ccc(Oc6c(-c7ccc(OC(F)(F)F)cc7)sc7cc(O)ccc67)cc5)CC4)ccc3C2=O)C(=O)N1 (centres unmarked) [Compound 217, 3-[5-[4-[3-[4-[6-hydroxy-2-[4-(trifluoromethoxy)phenyl]benzothiophen-3-yl]oxyphenoxy]propyl]piperazin-1-yl]-1-oxo-isoindolin-2-yl]piperidine-2,6-dione]
1 to 10 nM | 50 to 75% | 1 nM |  | O=C1CCC(N2Cc3cc(NCCCN4CCN(CCOc5ccc(Oc6c(-c7ccc(C(F)(F)F)cc7)sc7cc(O)ccc67)cc5)CC4)ccc3C2=O)C(=O)N1 (centres unmarked) [Compound 179]
1 to 10 nM | > 75% | 2.3 nM |  | O=C1CCC(N2C(=O)c3ccc(NCCCN4CCN(CCOc5ccc(Oc6c(-c7ccc(Br)cc7)sc7cc(O)ccc67)cc5)CC4)cc3C2=O)C(=O)N1 (centres unmarked) [Compound 177, 5-[3-[4-[2-[4-[2-(4-bromophenyl)-6-hydroxy-benzothiophen-3-yl]oxyphenoxy]ethyl]piperazin-1-yl]propylamino]-2-(2,6-dioxo-3-piperidyl)isoindoline-1,3-dione]
